A short description of data set [1]: persistence in synovial fluid of the typical intrasynovial preparation. As to conditions: micronised stanozolol 5 mg, water for injectables to 1 ml, horses and humans. The format is in vivo. The protocol: An example of the formulation of a typical preparation containing stanozolol administrable by the intrasynovial route to horses and humans, which remains in the synovial fluid for 5-7 days, is set out below:
Active ingredient: micronised stanozolol (having a prevalent population of particles with a diameter of less than 20 μm) 5 mg;
Water for injectables q.s. to 1 ml.

Data set [2] concerns synovial fibroblasts from rheumatoid synovial tissue. As to conditions: cited from earlier work.
In a further data set the test system is cartilage tissue. The data set can be described thus: effect on tissue, especially cartilage tissue. As to conditions: unlike the majority of NSAIDs and anti-inflammatory corticosteroids.
Another data set is described as follows: solubility in water. The format is physicochemical. As to conditions: crystalline substance. From the text: The formulations according to the invention of stanozolol in an aqueous carrier are therefore aqueous suspensions, and it is necessary to prevent the suspended crystals of the drug from causing mechanical lesions such as abrasions and erosions despite the pressures and friction generated by the movement of the joint on the surfaces of the cartilage and synovial membrane.

The next data set has as its system healthy skin fibroblast. As to conditions: cited from earlier work.
Data set [3] is described as follows: persistence in the joint after a single intrasynovial injection. The format is in vivo. From the text:
A single intrasynovial injection of said formulations allows the stanozolol to be brought up to and maintained at pharmacologically active concentrations in the joint for 6-7 days, a period which is long enough to produce evident clinical benefits and fully compatible with long-term treatments.

`C[C@]12Cc3c[nH]nc3C[C@@H]1CC[C@@H]1[C@@H]2CC[C@@]2(C)[C@H]1CC[C@]2(C)O` [stanozolol]: the “time remaining in the synovial fluid” value in data set [1] lay within 5 to 7 days. Also, the “effect on synovial fibroblasts” value in data set [2] was “no effect”. Moreover, the “degeneration of tissue, especially cartilage tissue” value with cartilage tissue is listed as “does not cause the degeneration of tissue, especially cartilage tissue, but regenerates it”. Moreover, in “solubility in water”, the solubility in water result is listed as “insoluble in water”. Moreover, in the data set with healthy skin fibroblast, the “production of PGE2” value is given as “induces the production” and the production of collagenase result is given as “induces the production”. For the same molecule, the “time stanozolol is maintained at pharmacologically active concentrations in the joint” value in data set [3] is listed as 6-7 days.

The values above are taken from patent US20090202645A1, “INTRASYNOVIAL FORMULATIONS OF STANOZOLOL” (ACME DRUGS S.R.L., priority 2008, published 2009).
